One test addresses mouse TAAR1 (Mus musculus (Mouse), UniProt Q923Y8). Put plainly: Radioligand binding assay on mouse TAAR1. The settings on record: for Ki: mouse TAAR1, HEK-293 membranes, first value of mouse/rat cell. On the procedure:
(§1) Construction of TAAR Expression Plasmids and Stably Transfected Cell Lines
(§2) For the construction of expression plasmids the coding sequences of human, rat and mouse TAAR 1 were amplified from genomic DNA essentially as described by Lindemann et al.. The Expand High Fidelity PCR System (Roche Diagnostics) was used with 1.5 mM Mg^2+ and purified PCR products were cloned into pCR2.1-TOPO cloning vector (Invitrogen) following the instructions of the manufacturer. PCR products were subcloned into the pIRESneo2 vector (BD Clontech, Palo Alto, Calif.), and expression vectors were sequence verified before introduction in cell lines.
(§3) HEK293 cells (ATCC # CRL-1573) were cultured essentially as described by Lindemann et al. (2005). For the generation of stably transfected cell lines HEK293 cells were transfected with the pIRESneo2 expression plasmids containing the TAAR coding sequences (described above) with Lipofectamine 2000 (Invitrogen) according to the instructions of the manufacturer, and 24 hrs post transfection the culture medium was supplemented with 1 mg/ml G418 (Sigma, Buchs, Switzerland). After a culture period of about 10 d clones were isolated, expanded and tested for responsiveness to trace amines (all compounds purchased from Sigma) with the cAMP Biotrak Enzyme immunoassay (EIA) System (Amersham) following the non-acetylation EIA procedure provided by the manufacturer.
Radioligand Binding Assay on Mouse TAAR1
(§4) Membrane Preparation and Radioligand Binding.
(§5) HEK-293 cells stably expressing mouse TAAR1 were maintained at 37° C. and 5% CO2 in DMEM high glucose medium, containing fetal calf serum (10%, heat inactivated for 30 min at 56° C.), penicillin/streptomycin (1%), and 375 μg/ml geneticin (Gibco). Cells were released from culture flasks using trypsin/EDTA, harvested, washed twice with ice-cold PBS (without Ca^2+ and Mg^2+), pelleted at 1'000 rpm for 5 min at 4° C., frozen and stored at −80° C. Frozen pellets were suspended in 20 ml HEPES-NaOH (20 mM, pH 7.4) containing 10 mM EDTA and homogenized with a Polytron (PT 6000, Kinematica) at 14'000 rpm for 20 s. The homogenate was centrifuged at 48'000×g for 30 min at 4° C. Subsequently, the supernatant was removed and discarded, and the pellet resuspended in 20 ml HEPES-NaOH (20 mM, pH 7.4) containing 0.1 mM EDTA using the Polytron (20 s at 14'000 rpm). This procedure was repeated and the final pellet resuspended in HEPES-NaOH containing 0.1 mM EDTA and homogenized using the Polytron. Typically, aliquots of 2 ml membrane portions were stored at −80° C. With each new membrane batch the dissociation constant (Kd) was determined via a saturation curve. […] Nonspecific binding was defined as the amount of ^3[H]—(S)-4-[(ethyl-phenyl-amino)-methyl]-4,5-dihydro-oxazol-2-ylamine bound in the presence of 10 μM unlabeled ligand. All compounds were tested at a broad range of concentrations (10 pM to 10 μM) in duplicates. […] The 96 deep well plates were incubated for 1 hr at 4° C. Incubations were terminated by rapid filtration through Unifilter-96 plates (Packard Instrument Company) and glass filters GF/C (Perkin Elmer) presoaked for 1 hr in polyethylenimine (0.3%) and washed 3 times with 1 ml of cold binding buffer. After addition of 45 μl of Microscint 40 (PerkinElmer) the Unifilter-96 plate was sealed and after 1 hr the ratioactivity counted using a TopCount Microplate Scintillation Counter (Packard Instrument Company).

The target in a further test is rat TAAR1 (Rattus norvegicus (Rat), UniProt Q923Y9). The test can be described thus: Radioligand binding assay on rat TAAR1. The settings on record: for Ki: rat TAAR1, HEK-293 membranes, second value of mouse/rat cell. As for the experimental part:
as §1, §2, §3
Radioligand Binding Assay on Rat TAAR1
as §4
as §5, with “rat” for “mouse”, “[…]” for “pM”

SMILES strings stand for the structures. Structures can show the parent of a compound that is named as a salt.

Results on 20 compounds are retold here after patent US9416127B2, “Triazole carboxamides and uses thereof” (Hoffmann-La Roche Inc., priority 2012, dated 2016).

As usually defined, the Ki is a dissociation constant, usually derived from enzyme kinetics or from competition with a known ligand. A low value points to tighter binding. As usually defined, the Kd is the constant that tells how readily two partners part at equilibrium.

mouse TAAR1, sequence (Q923Y8 whole entry): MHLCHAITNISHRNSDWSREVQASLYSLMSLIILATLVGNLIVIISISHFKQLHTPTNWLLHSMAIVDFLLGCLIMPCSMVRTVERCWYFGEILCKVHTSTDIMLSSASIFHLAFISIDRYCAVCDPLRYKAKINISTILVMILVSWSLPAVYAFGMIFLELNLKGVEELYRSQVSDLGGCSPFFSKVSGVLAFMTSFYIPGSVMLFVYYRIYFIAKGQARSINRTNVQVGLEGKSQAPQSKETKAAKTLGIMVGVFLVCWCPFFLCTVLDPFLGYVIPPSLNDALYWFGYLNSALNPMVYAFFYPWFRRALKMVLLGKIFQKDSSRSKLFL
rat TAAR1, sequence (Q923Y9 whole entry): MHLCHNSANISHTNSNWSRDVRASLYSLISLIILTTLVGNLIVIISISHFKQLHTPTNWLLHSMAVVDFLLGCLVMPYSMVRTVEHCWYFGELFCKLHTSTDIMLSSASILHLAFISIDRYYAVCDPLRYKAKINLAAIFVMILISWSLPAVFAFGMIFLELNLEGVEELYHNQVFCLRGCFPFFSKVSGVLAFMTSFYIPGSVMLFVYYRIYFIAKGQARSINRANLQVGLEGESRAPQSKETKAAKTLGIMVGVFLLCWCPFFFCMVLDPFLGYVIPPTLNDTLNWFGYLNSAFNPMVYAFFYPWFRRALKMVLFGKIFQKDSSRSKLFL

Consider `O=C(Nc1ccc([C@H]2CNCCO2)cc1)c1cnn(-c2ccc(OC(F)(F)F)cc2)n1` [Example 15, (S)—N-(4-(Morpholin-2-yl)phenyl)-2-(4-(trifluoromethoxy)phenyl)-2H-1,2,3-triazole-4-carboxamide hydrochloride], for which the Ki is 0.0002 µM at mouse TAAR1 and 0.0001 µM on rat TAAR1.
For `O=C(Nc1ccc([C@H]2CNCCO2)cc1)c1cnn(-c2ccc(OC(F)F)cc2)n1` [Example 16, (S)-2-(4-(Difluoromethoxy)phenyl)-N-(4-(morpholin-2-yl)phenyl)-2H-1,2,3-triazole-4-carboxamide hydrochloride] the same measures were 0.0003 µM and 0.0002 µM.
For `Cc1ccc(-n2cc(C(=O)Nc3ccc([C@H]4CNCCO4)cc3)nn2)cc1` [Example 17, (S)—N-(4-(Morpholin-2-yl)phenyl)-1-p-tolyl-1H-1,2,3-triazole-4-carboxamide hydrochloride] the same measures were 0.0013 µM and 0.0174 µM.
For `Cc1ccc(-n2ncc(C(=O)Nc3ccc([C@H]4CNCCO4)cc3)n2)cc1` [Example 18, (S)—N-(4-(Morpholin-2-yl)phenyl)-2-p-tolyl-2H-1,2,3-triazole-4-carboxamide hydrochloride] the same measures were 0.0007 µM and 0.0016 µM.
As to `COc1ccc(-n2cc(C(=O)Nc3ccc([C@H]4CNCCO4)cc3)nn2)cc1` [Example 19, (S)-1-(4-Methoxyphenyl)-N-(4-(morpholin-2-yl)phenyl)-1H-1,2,3-triazole-4-carboxamide hydrochloride], the Ki on mouse TAAR1 was found to be 0.0016 µM; at rat TAAR1, 0.0388 µM.
Regarding `COc1ccc(-n2ncc(C(=O)Nc3ccc([C@H]4CNCCO4)cc3)n2)cc1` [Example 20, (S)-2-(4-Methoxyphenyl)-N-(4-(morpholin-2-yl)phenyl)-2H-1,2,3-triazole-4-carboxamide hydrochloride], the Ki turned out to be 0.0014 µM on mouse TAAR1 and 0.0019 µM on rat TAAR1.
The matching figures for `CCOc1ccc(-n2cc(C(=O)Nc3ccc([C@H]4CNCCO4)cc3)nn2)cc1` [Example 21, (S)-1-(4-Ethoxyphenyl)-N-(4-(morpholin-2-yl)phenyl)-1H-1,2,3-triazole-4-carboxamide hydrochloride]: 0.0018 µM and 0.0293 µM.
For `CCOc1ccc(-n2ncc(C(=O)Nc3ccc([C@H]4CNCCO4)cc3)n2)cc1` [Example 22, (S)-2-(4-Ethoxyphenyl)-N-(4-(morpholin-2-yl)phenyl)-2H-1,2,3-triazole-4-carboxamide hydrochloride] the same measures were 0.0008 µM and 0.001 µM.
Consider `Cc1cccc(-n2ncc(C(=O)Nc3ccc([C@H]4CNCCO4)cc3)n2)c1` [Example 23, (S)—N-(4-(Morpholin-2-yl)phenyl)-2-m-tolyl-2H-1,2,3-triazole-4-carboxamide hydrochloride], for which the Ki on mouse TAAR1 came out at 0.0011 µM; on rat TAAR1, 0.0005 µM.
For `Cc1cccc(-n2cc(C(=O)Nc3ccc([C@H]4CNCCO4)cc3)nn2)c1` [Example 24, (S)—N-(4-(Morpholin-2-yl)phenyl)-1-m-tolyl-1H-1,2,3-triazole-4-carboxamide hydrochloride] the same measures were 0.0013 µM and 0.0069 µM.
For `COc1cccc(-n2cc(C(=O)Nc3ccc([C@H]4CNCCO4)cc3)nn2)c1` [Example 25, (S)-1-(3-Methoxyphenyl)-N-(4-(morpholin-2-yl)phenyl)-1H-1,2,3-triazole-4-carboxamide hydrochloride] the same measures were 0.0014 µM and 0.0092 µM.
The matching figures for `CCOc1cccc(-n2cc(C(=O)Nc3ccc([C@H]4CNCCO4)cc3)nn2)c1` [Example 26, (S)-1-(3-Ethoxyphenyl)-N-(4-(morpholin-2-yl)phenyl)-1H-1,2,3-triazole-4-carboxamide hydrochloride]: 0.0011 µM and 0.0032 µM.
On to `O=C(Nc1ccc([C@H]2CNCCO2)cc1)c1cn(-c2cccc(OC(F)(F)F)c2)nn1` [Example 27, (S)—N-(4-(Morpholin-2-yl)phenyl)-1-(3-(trifluoromethoxy)phenyl)-1H-1,2,3-triazole-4-carboxamide hydrochloride], for which the Ki on mouse TAAR1 was 0.0068 µM; at rat TAAR1, 0.0154 µM.
For `O=C(Nc1ccc([C@H]2CNCCO2)cc1)c1cnn(-c2cccc(OC(F)(F)F)c2)n1` [Example 28, (S)—N-(4-(Morpholin-2-yl)phenyl)-2-(3-(trifluoromethoxy)phenyl)-2H-1,2,3-triazole-4-carboxamide hydrochloride] the same measures were 0.0034 µM and 0.0156 µM.
For `O=C(Nc1ccc([C@H]2CNCCO2)cc1)c1cn(-c2cccc(OC(F)F)c2)nn1` [Example 29, (S)-1-(3-(Difluoromethoxy)phenyl)-N-(4-(morpholin-2-yl)phenyl)-1H-1,2,3-triazole-4-carboxamide hydrochloride] the same measures were 0.0009 µM and 0.0006 µM.
The matching figures for `COc1cccc(-n2ncc(C(=O)Nc3ccc([C@H]4CNCCO4)cc3)n2)c1` [Example 30, (S)-2-(3-Methoxyphenyl)-N-(4-(morpholin-2-yl)phenyl)-2H-1,2,3-triazole-4-carboxamide hydrochloride]: 0.0032 µM and 0.0082 µM.
As for `CCOc1cccc(-n2ncc(C(=O)Nc3ccc([C@H]4CNCCO4)cc3)n2)c1` [Example 31, hydrochloride], the Ki was 0.013 µM at mouse TAAR1 and 0.107 µM on rat TAAR1.
For the compound `O=C(Nc1ccc([C@H]2CNCCO2)cc1)c1ncn(-c2ccc(OC(F)F)cc2)n1` [Example 32, (S)-1-(4-(Difluoromethoxy)phenyl)-N-(4-(morpholin-2-yl)phenyl)-1H-1,2,4-triazole-3-carboxamide hydrochloride], the Ki was 0.0018 µM at mouse TAAR1 and 0.045 µM on rat TAAR1.
For `O=C(Nc1ccc([C@H]2CNCCO2)cc1)c1cn(-c2ccc(Br)cn2)nn1` [Example 36, (S)-1-(5-Bromopyridin-2-yl)-N-(4-(morpholin-2-yl)phenyl)-1H-1,2,3-triazole-4-carboxamide hydrochloride] the same measures were 0.0046 µM and 0.03 µM.
For `CCN(C[C@H]1COC(N)=N1)c1ccccc1` [^3[H]—(S)-4-[(ethyl-phenyl-amino)-methyl]-4,5-dihydro-oxazol-2-ylamine, reference compound], the Kd at mouse TAAR1 (mouse TAAR1 membranes, saturation curve, read-out: dissociation constant (Kd) of radioligand) was ~0.7 nM; on rat TAAR1 (rat TAAR1 membranes, saturation curve, read-out: dissociation constant (Kd) of radioligand) it was ~2.3 nM.
